Where two headings read alike, the source gives them in different places.

The nature of data set [1]: Microculture tetrazolium assay (MTA, XTT) for cytotoxicity. It is filed as cell-based. As to conditions: for CC50: cytotoxicity, XTT; for toxicity at effective concentrations: in words. (Tetrazolium assays rely on reduction of a dye to a coloured formazan, in cell work by metabolically active cells.)
Data set [2] deals with multidrug resistant HIV-1 strain RT-MDR. The data set can be described thus: microbe, parasite or virus in culture. It is filed as cell-based. Particulars: for times more effective against RT-MDR than against HTLVIIIB: ratio RT-MDR vs HTLVIIIB; for times more potent than AZT against RT-MDR: vs AZT; for times more potent than MKC-442 against RT-MDR: vs MKC-442; for times more potent than delavirdine against RT-MDR: vs delavirdine; for times more potent than nevirapine against RT-MDR: vs nevirapine; for times more potent than trovirdine against RT-MDR: vs trovirdine. Here is the method:
(§1) In addition, the anti-HIV activity of the compounds was measured by determining their ability to inhibit the replication of the HIV-1 strains HTLVIIIB, RT-MDR, A17, and A17 variant in peripheral blood mononuclear cells (PBMC) from healthy volunteer donors, using the method described in Uckun et.al., 1998, Antimicrobial Agents and Chemotherapy 42:383.
(§2) Normal human peripheral blood mononuclear cells (PBMNC) from HIV-negative donors were cultured 72 hours in RPMI 1640 supplemented with 20% (v/v) heat-inactivated fetal bovine serum (FBS), 3% interleukin-2,2 mM L-glutairine, 25 mM HEPES, 2 μL, NAHCO, […] gentamicin, and 4 μg/mL phytohemagglutinin prior to exposure to HIV-1 or other HIV strain at a multiplicity of infection (MOI) of 0.1 during a one-hour adsorption period at 37° C. in a humidified 5% CO2 atmosphere. Subsequently, cells were cultured in 96-well microplates (100 μL/well; 2×10^6 cells/mL, triplicate wells) in the presence of various inhibitor concentrations. Aliquots of culture supernatants were removed from the wells on the 7th day after infection for p24 antigen p24 enzyme immunoassays (EIA), as previously described in Erice et al., 1993, Antimicrob. Ag. Chemotherapy 37:385-838. The applied p24 EIA was the unmodified kinetic assay commercially available from Coulter Corporation/Immunotech, Inc. (Westbrook, Me.). Percent inhibition of viral replication was calculated by comparing the p24 values from the test substance-treated infected cells with p24 values from untreated infected cells (i.e, virus controls).
(§3) RT-MDR was obtained through the AIDS Research and Reference Reagent Program, from Dr. Bendan Larder, and is described in Larder et al., 1993, Nature, 365, 451-453.

The test system of a further data set is HIV-1 strain HTLVIIIB
The data set can be described thus: Inhibition of HIV p24 antigen production in PBMC, strain HTLVIIIB
It counts as cell-based. As to conditions: read-out: IC50 HTLVIIIB
Here is the method: as §1, §2, §3

Data set [3] deals with RT Y181C mutant A17 strain. Briefly: microbe, parasite or virus in culture. It counts as cell-based, HIV-1. Particulars: for IC50: read-out: IC50 A17. Here is the method:
as §1, §2, §3

Data set [4] relates to A17 variant with both Y181C and K103N mutations in RT. Briefly: microbe, parasite or virus in culture. It is filed as cell-based, HIV-1. Particulars: read-out: IC50 A17 variant. Here is the method:
as §1, §2, §3

For data set [5], the target named is T1, purified recombinant HIV RT (Human immunodeficiency virus type 1 group M subtype B, UniProt P03366).
T1 construct: Addition of 10 mU of recombinant HIV RT
Briefly: Purified RT assay, cell-free Quan-T-RT scintillation proximity assay. It is filed as biochemical. Here is the method: In the assay, a DNA/RNA template is bound to SPA beads via a biotin/strepavidin linkage. The primer DNA is a 16-mer oligo(T) which has been annealed to a poly(A) template. The primer/template is bound to a strepavidin-coated SPA bead.
^3H-TTP is incorporated into the primer by reverse transcription. […] The compound being tested was added to the reaction mixture at 0.001 μM-100 μM concentrations. […] The reaction was stopped by addition of 0.2 ml of 120 mM EDTA. The samples were counted in an open window using a Beckman LS 7600 instrument and IC50 values were calculated by comparing the measurements to untreated samples.

Where [6] appears, read: ranking order of potency, read-out: IC50 against RT-MDR.
[7] abbreviates: recombinant HIV RT, 37° C., 1 hour, read-out: IC50 rRT.
Setting [8] is: Human immunodeficiency virus 1, PBMC, 168 h, read-out: IC50 RT-MDR.
Setting [9] is: Human immunodeficiency virus 1, PBMC, read-out: IC50 against RT-MDR.
The mark [10] stands for this setting: Human immunodeficiency virus 1, PBMC, 168 h.

For the compound `S=C(NCCc1ccccn1)Nc1ccc(Br)cn1` [Trovirdine, N-[2-(5-Bromopyridinyl)]-N′-[2-(Pyridinyl)]thiourea, reference compound], the CC50 (commonly the concentration at which the toxic effect on the cells reaches its halfway point) in data set [1] was more than 100 µM. The IC50 (as a rule, the midpoint of a concentration-inhibition curve) in data set [2] (setting [6]) was 0.02 µM; with HIV-1 strain HTLVIIIB (p24 production in PBMC, day 7), 0.007 µM; in data set [3] (p24 production in PBMC, day 7), 0.5 µM; in data set [4] (p24 production in PBMC, day 7), more than 100 µM; in data set [5] (setting [7]), 0.8 µM.

Consider `Cc1ccnc2c1NC(=O)c1cccnc1N2C1CC1` [Nevirapine, reference compound], for which the CC50 in data set [1] is 10.5 µM. Also, the IC50 in data set [2] (setting [8]) is 5 µM; in data set [2] (setting [9]), 5 µM; in the data set with HIV-1 strain HTLVIIIB (setting [10]) it was 0.034 µM; in data set [3] (setting [10]), more than 100 µM; in data set [4] (setting [10]), more than 100 µM.

Take `S=C(NCCC1C2CC3CC(C2)CC1C3)Nc1ccc(Br)cn1` (stereo not drawn) [HI-504, N-[2-(5-Bromopyridinyl)]-N′-[2-(2-Adamantyl)]thiourea]: the IC50 in data set [5] (setting [7]) is more than 100 µM.

In the case of `FC(F)(F)c1ccc(NC(=S)NCCC2=CCCCC2)nc1` [HI-347, N-[2-(5-Trifluoromethylpyridinyl)]-N′-[2-(1-Cyclohexenyl)ethyl]thiourea], the melting point (usually the temperature of the solid-liquid transition) was 161 to 162 °C. In addition, the 50% cytotoxic concentration (CC50) in data set [1] is more than 100 µM. In addition, the IC50 in data set [2] (setting [8]) is 0.038 µM. The IC50 with HIV-1 strain HTLVIIIB (setting [10]) was found to be 0.079 µM. The IC50 in data set [3] (setting [10]) was 0.3 µM. Also, the IC50 in data set [4] (setting [10]) was more than 100 µM. The IC50 in data set [5] turned out to be 4 µM.

Turning to `Cc1cn([C@H]2C[C@H](N=[N+]=[N-])[C@@H](CO)O2)c(=O)[nH]c1=O` [AZT, reference compound], the CC50 in data set [1] was more than 100 µM. Moreover, the IC50 was found to be 0.2 µM in data set [2] (setting [6]) and 0.006 µM in data set [3] (p24 production in PBMC, day 7).

`CC(C)Nc1cccnc1N1CCN(C(=O)c2cc3cc(NS(C)(=O)=O)ccc3[nH]2)CC1` [Delavirdine, reference compound] displayed a half-maximal cytotoxic concentration (CC50) in data set [1] of 3.6 µM. Also, the IC50 in data set [2] (setting [8]) was 0.4 µM; in data set [2] (setting [9]) it was 0.4 µM; with HIV-1 strain HTLVIIIB (setting [10]), 0.009 µM; in data set [3] (setting [10]) it was 50 µM; in data set [4] (setting [10]), more than 100 µM.

Consider `S=C(NCCC1=CCCCC1)Nc1ccc(Cl)cn1` [HI-445, N-[2-(5-Chloropyridinyl)]-N′-[2-(1-Cyclohexenyl)ethyl]thiourea], for which the melting point came out at 165 °C. For the same compound, in data set [1], the CC50 was more than 100 µM and the “toxicity at effective concentrations” value was “Neither compound exhibited significant toxicity”. In addition, the IC50 in data set [2] (setting [8]) was 0.001 µM. In addition, in data set [2] (setting [9]), the IC50 stood at 0.001 µM. Moreover, in data set [2], the “times more effective against RT-MDR than against HTLVIIIB” value was found to be 3 times, the “times more potent than AZT against RT-MDR” value was 200 times, the “times more potent than MKC-442 against RT-MDR” value is on record as 300 times and the “times more potent than delavirdine against RT-MDR” value is recorded as 400 times. In data set [2], the “times more potent than nevirapine against RT-MDR” value amounted to 5000 times and the “times more potent than trovirdine against RT-MDR” value amounted to 20 times. Besides, the IC50 in the data set with HIV-1 strain HTLVIIIB (setting [10]) stood at 0.003 µM. Besides, the IC50 in data set [3] (setting [10]) is 0.068 µM. Also, the “fold more effective than nevirapine or delavirdine against A17” value in data set [3] (vs nevirapine or delavirdine) was > 1,400 fold. Besides, in data set [3] (vs trovirdine), the “fold more effective than trovirdine against A17” value is more than 7 fold. For the same compound, in data set [4] (setting [10]), the IC50 was found to be 30 µM. Further, the IC50 in data set [5] came to 0.5 µM.

With `CCOCn1c(Cc2ccccc2)c(C(C)C)c(=O)[nH]c1=O` [MKC-442, reference compound], the CC50 in data set [1] was more than 100 µM. The IC50 is 0.3 µM in data set [2] (setting [8]), 0.3 µM in data set [2] (setting [9]) and 0.8 µM in data set [5] (setting [7]).

Compound `CC1(C)C2CCC(CNC(=S)Nc3ccc(Br)cn3)C1C2` (stereo not drawn) [HI-444, N-[2-(5-Bromopyridinyl)]-N′-[2-(2-Myrtanyl)]thiourea] returned a melting point of 180 to 181 °C. The half-maximal inhibitory concentration (IC50) in data set [5] (setting [7]) is more than 100 µM.

Compound `S=C(NCCC1=CCCCC1)Nc1ccc(Br)cn1` [HI-346, N-[2-(5-Bromopyridinyl)]-N′-[2-(1-Cyclohexenyl)ethyl]thiourea] displayed a melting point of 172 to 173 °C. In data set [1], the CC50 was more than 100 µM and the “toxicity at effective concentrations” value is recorded as “Neither compound exhibited significant toxicity”. The IC50 in data set [2] (setting [8]) came out at 0.001 µM. In data set [2] (setting [9]), the IC50 was found to be 0.001 µM. In data set [2], the “times more effective against RT-MDR than against HTLVIIIB” value is 3 times, the “times more potent than AZT against RT-MDR” value was 200 times, the “times more potent than MKC-442 against RT-MDR” value is given as 300 times and the “times more potent than delavirdine against RT-MDR” value is listed as 400 times. Moreover, in data set [2], the “times more potent than nevirapine against RT-MDR” value stood at 5000 times and the “times more potent than trovirdine against RT-MDR” value was determined as 20 times. Further, the IC50 in the data set on HIV-1 strain HTLVIIIB (setting [10]) came to 0.003 µM. In addition, in data set [4] (setting [10]), the IC50 was 18.7 µM. Also, the IC50 in data set [5] was found to be 0.4 µM.

The values above are taken from patent US6469034B1, “Cyclohexenyl-ethyl-thiourea compounds for inhibiting HIV reverse transcriptase” (Parker Hughes Institute, priority 1999, dated 2002).
